The test system of one series is HL-60. Description: Antiproliferative activity against human HL-60 cells assessed as cell growth inhibition measured after 72 hrs by trypan blue staining based assay. In kind it is functional. As to conditions: HL-60, 72 h.
A further series deals with K562. The experiment in a line: Antiproliferative activity against human K562 cells assessed as cell growth inhibition. The series is classed as functional, cell-based.
Series [1] concerns MDA-MB-231. Description: Antiproliferative activity against human MDA-MB-231 cells assessed as cell growth inhibition by SRB assay. The series is classed as functional, cell-based. On the technique in general: Sulforhodamine B stains cellular protein and so reports cell mass.
For the next series, the system named is KE-37. Description: Anticancer activity against human KE-37 cells assessed as reduction in cell viability. In kind it is functional, cell-based.
In series [2] the test system is MCF7. Description: Cytotoxicity against human MCF7 cells assessed as cell growth inhibition after 48 hrs by MTT assay. The series is classed as functional, cell-based. Conditions: MCF7, 48 h.
The next series relates to PANC-1. The experiment in a line: Antiproliferative activity against human PANC-1 cells assessed as cell growth inhibition incubated for 48 hrs by MTT assay. As to conditions: PANC-1, 48 h. The series is classed as functional, cell-based. Background: Formazan colour is commonly taken as a measure of viable cells.
For the next series, the system named is A549 (Homo sapiens). The experiment in a line: Antiproliferative activity against human A549 cells assessed as cell growth inhibition incubated for 48 hrs by MTT assay. Conditions: A549, 48 h.
Series [3] in a line: Oral bioavailability in Sprague-Dawley rat at 10 mg/kg measured up to 24 hrs by LC-MS/MS analysis. In kind it is ADME, organism-based. As to conditions: in vivo.
In another series the test system is SGC-7901. Description: Antiproliferative activity against human SGC-7901 cells assessed as cell growth inhibition. In kind it is functional, cell-based.
For series [4], the system named is HepG2. The experiment in a line: Antiproliferative activity against human HepG2 cells assessed as cell growth inhibition incubated for 48 hrs by MTT assay. In kind it is functional, cell-based.
In series [5] the test system is HeLa. The experiment in a line: Anticancer activity against human HeLa cells assessed as inhibition of cell growth by SRB assay. The series is classed as functional, cell-based.
The subject of series [6] is HeLa. Description: Cytotoxicity against human HeLa cells assessed as cell growth inhibition. The series is classed as functional, cell-based.
In the next series the test system is HCT-116. The experiment in a line: Antiproliferative activity against human HCT-116 cells assessed as reduction in cell viability incubated for 72 hrs by MTT assay. The series is classed as functional, cell-based. Conditions: HCT-116, 72 h.
Series [7] in a line: Antiproliferative activity against human H357 cells assessed as reduction in cell proliferation incubated for 72 hrs by CellTiter-Glo reagent based assay. The series is classed as functional. As to conditions: H357, 72 h.
The subject of series [8] is MDA-MB-231. The experiment in a line: Antiproliferative activity against human MDA-MB-231 cells assessed as reduction in cell proliferation incubated for 72 hrs by CellTiter-Glo reagent based assay. As to conditions: MDA-MB-231, 72 h. The series is classed as functional. On the technique in general: In ATP-based viability assays light output follows the ATP content of the culture.

A further series concerns Hep 3B2. The experiment in a line: Antiproliferative activity against human Hep3B cells assessed as reduction in cell viability incubated for 48 hrs by MTT assay. The series is classed as functional, cell-based.
Another series concerns MHCC97. Description: Antiproliferative activity against human MHCC97 cells assessed as inhibition of cell growth measured after 3 days by CellTiter-Glo assay. Conditions: MHCC97, 72 h. In kind it is functional, cell-based.
The subject of another series is SMMC-7721. Description: Antiproliferative activity against human SMMC-7721 cells assessed as reduction in cell viability incubated for 48 hrs by MTT assay. The series is classed as functional, cell-based. As to conditions: SMMC-7721, 48 h.
For another series, the system named is Bel-7402. Description: Antiproliferative activity against human Bel-7402 cells assessed as reduction in cell viability incubated for 48 hrs by MTT assay. Conditions: Bel-7402, 48 h. The series is classed as functional, cell-based.
For another series, the system named is A549. The experiment in a line: Anticancer activity against human A549 cells assessed as inhibition of cell growth incubated for 48 hrs by MTT assay. As to conditions: A549, 48 h. The series is classed as functional, cell-based.
For a further series, the system named is A-375. Description: Anticancer activity against human A-375 cells assessed as inhibition of cell growth incubated for 48 hrs by MTT assay. As to conditions: A-375, 48 h. The series is classed as functional, cell-based.
Series [9] has as its system MCF7. The experiment in a line: Anticancer activity against human MCF7 cells assessed as inhibition of cell growth incubated for 48 hrs by MTT assay. The series is classed as functional, cell-based. Conditions: MCF7, 48 h.
Series [10] deals with MCF7. Description: Cytotoxicity against human MCF7 cells assessed as reduction in cell growth incubated for 5 days by MTT assay. The series is classed as functional, cell-based. As to conditions: MCF7, 120 h.
Series [11] can be described thus: Cytotoxicity against human HEK cells assessed as reduction in cell growth incubated for 5 days by MTT assay. The series is classed as functional, cell-based. As to conditions: HEK293, 120 h.
The test system of series [12] is MCF7. The experiment in a line: Cytotoxicity against human MCF7 cells assessed as inhibition of cell proliferation incubated for 72 hrs by MTT assay. In kind it is functional, cell-based. Conditions: MCF7, 72 h.
The test system of the next series is 4T1. Description: Cytotoxicity against mouse 4T1 cells assessed as inhibition of cell proliferation incubated for 72 hrs by MTT assay. In kind it is functional, cell-based. As to conditions: 4T1, 72 h.
Series [13] deals with HepG2. Description: Cytotoxicity against human HepG2 cells assessed as reduction in cell viability measured after 24 hrs by MTT assay. As to conditions: HepG2, 24 h. The series is classed as functional, cell-based.
The test system of another series is SK-OV-3. The experiment in a line: Antiproliferative activity against human SK-OV-3 cells assessed as reduction in cell growth by SRB assay. The series is classed as functional, cell-based.
The subject of series [14] is MCF7. Description: Anticancer activity against human MCF7 cells after 48 hrs by SRB assay. As to conditions: MCF7, 48 h. The series is classed as functional, cell-based.

pIC50: −log10 of the molar value.

One may read the pIC50 as the negative decadic logarithm of the IC50, by convention in mol/L. Take `O=C(N/N=C/c1c(Cl)c2ccccc2oc1=O)c1ccccc1`: the pIC50 with HL-60 was 5.54; in the series on K562, 5.14; in the series with MDA-MB-231 [1] it was 5.04; in the series on KE-37, 5.28.

With `COc1ccc(-c2cc(-c3cc4ccccc4oc3=O)nc(Cc3ccc(F)cc3)n2)cc1`, in the series on MCF7 [2], the pIC50 is 5.65.

For orientation: bioavailability means dose-corrected exposure relative to a reference, in per cent. High values mean much systemic uptake, low ones little systemic uptake. In the case of `COc1cc(Cl)ccc1S(=O)(=O)Nc1ccc2oc(=O)ccc2c1`, the pIC50 is 5.15 in the series with PANC-1, 5.33 in the series on A549 (Homo sapiens), 5.19 with SGC-7901 and 5.32 with HepG2 [4]. In series [3], this compound showed a bioavailability of 49.4%.

On to `Cc1cc(=O)oc2cc(OCCOCCN3C(=O)C(=O)c4cc(F)ccc43)ccc12`, for which the pIC50 in the series with HeLa [5] was 4.94.

`CN(C)c1ccc2c(c1)O/C(=C(/C#N)c1cc[n+](C)cn1)C=C2C(F)(F)F`: the pIC50 in the series on HeLa [6] was 5.96.

For `CCN(CC)c1ccc2cc(C(=O)/C=C/c3ccc(OC)c(O)c3)c(=O)oc2c1`, the pIC50 in the series on HCT-116 is 5.44.

Take `C/C(=N\c1ccc(S(N)(=O)=O)cc1)c1cc2ccccc2oc1=O`: the pIC50 in [7] is 5.06; with MDA-MB-231 [8], 5.11.

For the compound `O=c1oc2ccccc2c(O)c1C(c1cccc(Oc2ccccc2)c1)c1c(O)c2ccccc2oc1=O`, the pIC50 is 5.05 in the series on Hep 3B2, 5.15 in the series on MHCC97, 5.22 with SMMC-7721 and 5.10 in the series with Bel-7402.

In the case of `Cc1ccc(NCc2cc(=O)oc3ccc4ccccc4c23)cc1`, the figures for the pIC50 in the series with A549, in the series on A-375 and in the series with MCF7 [9] were 5.37, 5.04 and 5.29, respectively.

As to `CC(c1cc2ccccc2oc1=O)(c1c[nH]c2ccc(Br)cc12)c1c[nH]c2ccc(Br)cc12`, the pIC50 is 4.67 with MCF7 [10] and below 4.30 in [11].

With `O=C(Cc1cc(=O)oc2cc(O)ccc12)NCCCCCCCCCNc1c2c(nc3ccccc13)CCCC2`, the pIC50 with MCF7 [12] was 5.22; with 4T1, 5.24.

For `O=C(Nc1ccc(/C=C/C(=O)c2cc3ccccc3oc2=O)cc1)Nc1ccc([N+](=O)[O-])cc1`, the pIC50 in the series on HepG2 [13] is 5.63.

For the compound `Cc1cc(=O)oc2cc(OCCOCCN3C(=O)/C(=N/O)c4ccccc43)ccc12`, the pIC50 with SK-OV-3 was 4.73.

In turn, `COc1ccc2nc(SCc3cc(=O)oc4ccc(C(C)(C)C)cc34)[nH]c2c1` gave a pIC50 in the series with MCF7 [14] of 6.74.

For the origin of these results see ChEMBL document CHEMBL5357036, “Latest developments in coumarin-based anticancer agents: mechanism of action and structure-activity relationship studies” (RSC Med Chem, 2024).
